# Experimental data reported in US20140275063A1, “NEW ENZYME INHIBITOR COMPOUNDS” (PROXIMAGEN LIMITED, priority 2011, published 2014).
# pIC50: −log10 of the molar value. Structures can show the parent of a compound that is named as a salt.
# Biological target: T1, human SSAO (Homo sapiens, UniProt Q16853)
# T1 construct: made in house
# T1 sequence (Q16853 29-763 limits assumed): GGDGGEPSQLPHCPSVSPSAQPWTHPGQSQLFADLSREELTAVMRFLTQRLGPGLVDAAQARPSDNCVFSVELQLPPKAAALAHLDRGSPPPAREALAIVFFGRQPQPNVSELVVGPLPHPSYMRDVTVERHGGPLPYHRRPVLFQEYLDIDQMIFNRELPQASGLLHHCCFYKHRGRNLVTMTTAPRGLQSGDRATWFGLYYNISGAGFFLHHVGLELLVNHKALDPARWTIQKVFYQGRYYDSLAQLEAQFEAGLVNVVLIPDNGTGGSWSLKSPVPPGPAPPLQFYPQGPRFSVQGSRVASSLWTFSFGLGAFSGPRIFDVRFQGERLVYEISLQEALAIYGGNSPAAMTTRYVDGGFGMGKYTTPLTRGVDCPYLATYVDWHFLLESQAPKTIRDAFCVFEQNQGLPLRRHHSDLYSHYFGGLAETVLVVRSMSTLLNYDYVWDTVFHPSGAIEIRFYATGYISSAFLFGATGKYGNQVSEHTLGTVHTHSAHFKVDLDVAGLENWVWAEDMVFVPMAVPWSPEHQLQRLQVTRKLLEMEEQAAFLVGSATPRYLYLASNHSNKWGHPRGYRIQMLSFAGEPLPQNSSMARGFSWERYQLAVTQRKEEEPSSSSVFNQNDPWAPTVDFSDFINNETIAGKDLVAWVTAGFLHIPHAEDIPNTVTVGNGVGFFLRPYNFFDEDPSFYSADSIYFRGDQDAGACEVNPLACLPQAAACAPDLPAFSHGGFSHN
# Assay: SSAO inhibitory activity (HRP-coupled hydrogen peroxide detection or 14C-benzaldehyde detection, benzylamine substrate)
# Format: biochemical
# Details: purified recombinantly expressed human SSAO, benzylamine as substrate, RT
# Experimental: All primary assays were performed at RT. with purified recombinantly expressed human SSAO. Enzyme was prepared essentially as described in Öhman et al. (Protein Expression and Purification 46 (2006) 321-331). In addition, secondary- and selectivity assays were performed using SSAO prepared from various tissues or purified rat recombinant SSAO. The enzyme activity was assayed with benzylamine as substrate by measuring either benzaldehyde production, using ^14C-labeled substrate, or by utilizing the production of hydrogen peroxide in a horseradish peroxidase (HRP) coupled reaction. Briefly, test compounds were dissolved in dimethyl sulfoxide (DMSO) to a concentration of 10 mM. Dose-response measurements were assayed by either creating 1:10 serial dilutions in DMSO to produce a 7 point curve or by making 1:3 serial dilutions in DMSO to produce 11 point curves. The top concentrations were adjusted depending on the potency of the compounds and subsequent dilution in reaction buffer yielded a final DMSO concentration ≦2%.
# In a horseradish peroxidase (HRP) coupled reaction, hydrogen peroxide oxidation of 10-acetyl-3,7-dihydroxyphenoxazine produced resorufin, which is a highly fluorescent compound (Zhout and Panchuk-Voloshina. Analytical Biochemistry 253 (1997) 169-174; Amplex® Red Hydrogen Peroxideperoxidase Assay kit, Invitrogen A22188). Enzyme and compounds in 50 mM sodium phosphate, pH 7.4 were set to pre-incubate in flat-bottomed microtiter plates for approximately 15 minutes before initiating the reaction by addition of a mixture of HRP, benzylamine and Amplex reagent. Benzylamine concentration was fixed at a concentration corresponding to the Michaelis constant, determined using standard procedures. Fluorescence intensity was then measured at several time points during 1-2 hours, exciting at 544 nm and reading the emission at 590 nm. For the human SSAO assay final concentrations of the reagents in the assay wells were: SSAO enzyme 1 μg/ml, benzylamine 100 μM, Amplex reagent 20 μM, HRP 0.1 U/mL and varying concentrations of test compound. The inhibition was measured as % decrease of the signal compared to a control without inhibitor (only diluted DMSO). The background signal from a sample containing no SSAO enzyme was subtracted from all data points. Data was fitted to a four parameter logistic model and IC50 values were calculated using the Graph Pad Prism 4 or XLfit 4 programs.
# SSAO activity was assayed using 14C-labeled benzylamine and analysed by measuring radioactive benzaldehyde. In a white 96-well optiplate (Packard), 20 μL of diluted test compound was pre-incubated at RT. with 20 μL SSAO enzyme for approximately 15 minutes with continuous agitation. All dilutions were made with PBS. The reaction was initiated by adding 20 μL of the benzylamine substrate solution containing [7-14C] Benzylamine hydrochloride (CFA589, GE Healthcare). The plate was incubated for 1 hour as above after which the reaction was stopped by acidification (10 μL 1 M HCl). Then 90 μL Micro Scint-E solution (Perkin-Elmer) was added to each well and the plate was continuously mixed for 15 minutes. Phase separation occurred instantly and activity was read in a Topcount scintillation counter (Perkin-Elmer). In the final reaction well, the human recombinant SSAO concentration was 10 μg/ml. In order to optimize sensitivity, the substrate concentration was decreased as compared to the HRP coupled assay in order to get a higher fraction of radioactive product. In the human SSAO assay, benzylamine concentration was 40 μM (0.2 μCi/mL). Data was analysed as above.
row,Structure (SMILES),pIC50
1,"O=C(NCCCN1CCOCC1)N1CCC(c2cn(-c3ccc(Cl)cc3)c3cnccc23)CC1 [Compound 26, 4-(1-(4-Chlorophenyl)-1H-pyrrolo[2,3-c]pyridin-3-yl]-N-[3-(morpholin-4-yl)propyl] piperidine-1-carboxamide]",> 7.00
2,"O=C(NCC1CNCCO1)N1CCC(c2cn(-c3ccc(Cl)cc3)c3cnccc23)CC1 (stereo not drawn) [Compound 20, 4-[1-(4-Chlorophenyl)-1H-pyrrolo[2,3-c]pyridin-3-yl]-N-(morpholin-2-ylmethyl) pipendine-1-carboxamide]",> 7.00
3,"O=C(NCCN1CCNCC1)N1CCC(c2cn(-c3ccc(Cl)cc3)c3cnccc23)CC1 [Compound 23, 4-[1-(4-Chlorophenyl)-1H-pyrrolo[2,3-c]pyridin-3-yl]-N-[2-(piperazin-1-yl)ethyl] piperidine-1-carboxamide]",> 7.00
4,"Clc1ccc(-n2nc(N3CCOC(CN4CCNCC4)C3)c3ccncc32)cc1 (stereo not drawn) [Compound 36, 4-[1-(4-Chlorophenyl)-1H-pyrazolo[3,4-c]pyridin-3-yl]-2-(piperazin-1-ylmethyl) morpholine trihydrochloride]",> 7.00
5,"O=C(NC1CCNCC1)N1CCC(c2cn(-c3ccc(Cl)cc3)c3cnccc23)CC1 [Compound 7, 4-[1-(4-Chlorophenyl)-1H-pyrrolo[2,3-c]pyridin-3-yl]-N-(piperidin-4-yl) piperidine-1-carboxamide]",> 7.00
6,"CC(=O)NCCCNC(=O)N1CCC(c2cn(-c3ccc(Cl)cc3)c3cnccc23)CC1 [Compound 29, N-[3-({4-[1-(4-Chlorophenyl)-1H-pyrrolo[2,3-c]pyridin-3-yl]piperidin-1-yl}carbonylamino)propyl]acetamide]",> 7.00
7,"CCN1CCC(CNC(=O)N2CCC(c3cn(-c4ccc(Cl)cc4)c4cnccc34)CC2)CC1 [Compound 12, 4-[1-(4-Chlorophenyl)-1H-pyrrolo[2,3-c]pyridin-3-yl]-N-[(1-ethylpiperidin-4-yl)methyl] piperidine-1-carboxamide]",> 7.00
8,"Cc1ccc(-n2nc(N3CCOC(CN4CCOCC4)C3)c3ccncc32)cc1 (stereo not drawn) [Compound 34, 4-[1-(4-Methylphenyl)-1H-pyrazolo[3,4-c]pyridin-3-yl]-2-(morpholin-4-ylmethyl)morpholine]",6.30 to 7.00
9,"CC(=O)N1CCC(NC(=O)N2CCC(c3cn(-c4ccc(Cl)cc4)c4cnccc34)CC2)CC1 [Compound 10, N-(1-Acetylpiperidin-4-yl)-4-[1-(4-chlorophenyl)-1H-pyrrolo [2,3-c]pyridin-3-yl]piperidine-1-carboxamide]",> 7.00
10,"O=C(NCC1CCNCC1)N1CCC(c2cn(-c3ccc(Cl)cc3)c3cnccc23)CC1 [Compound 6, 4-[1-(4-Chlorophenyl)-1H-pyrrolo[2,3-c]pyridin-3-yl]-N-(piperidin-4-ylmethyl)piperidine-1-carboxamide]",> 7.00
11,"Cc1ccc(-n2nc(N3CCOC(CNC(=O)OC(C)C)C3)c3ccncc32)cc1 (stereo not drawn) [Compound 30, Propan-2-yl N-({4-[1-(4-methylphenyl)-1H-pyrazolo[3,4-c]pyridin-3-yl]morpholin-2-yl}methyl)carbamate]",> 7.00
12,"O=C(NCc1nn[nH]n1)N1CCC(c2cn(-c3ccc(Cl)cc3)c3cnccc23)CC1 [Compound 61, 4-[1-(4-Chlorophenyl)-1H-pyrrolo[2,3-c]pyridin-3-yl]-N-(2H-1,2,3,4-tetrazol-5-ylmethyl)piperidine-1-carboxamide; trifluoroacetic acid]",> 7.00
13,"CN1CCC(NC(=O)CC2COCCN2c2nn(-c3ccc(Cl)cc3)c3cnccc23)CC1 (stereo not drawn) [Compound 57, 2-{4-[1-(4-Chlorophenyl)-1H-pyrazolo[3,4-c]pyridin-3-yl]morpholin-3-yl)-N-(1-methylpiperidin-4-yl)acetamide]",6.30 to 7.00
14,"CC(C)N1CCC(CN(C)C(=O)N2CCC(c3cn(-c4ccc(Cl)cc4)c4cnccc34)CC2)CC1 [Compound 15, 4-[1-(4-Chlorophenyl)-1H-pyrrolo[2,3-c]pyridin-3-yl]-N-methyl-N-{[1-(propan-2-yl)piperidin-4-yl]methyl} piperidine-1-carboxamide]",> 7.00

# The remaining lines, values ahead:
row,pIC50,Structure (SMILES)
1,> 7.00,"CN1CCC(CN(C)C(=O)N2CCC(c3cn(-c4ccc(Cl)cc4)c4cnccc34)CC2)CC1 [Compound 13, 4-[1-(4-Chlorophenyl)-1H-pyrrolo[2,3-c]pyridin-3-yl]-N-methyl-N-[(1-methylpiperidin-4-yl)methyl] piperidine-1-carboxamide; formic acid]"
2,> 7.00,"COCCN1CCN(C(=O)N2CCC(c3cn(-c4ccc(Cl)cc4)c4cnccc34)CC2)CC1 [Compound 18, 1-({4-[1-(4-Chlorophenyl)-1H-pyrrolo[2,3-c]pyridin-3-yl]piperidin-1-yl}carbonyl)-4-(2-methoxyethyl) piperazine]"
3,6.30 to 7.00,"CN1CCN(CCNc2nn(-c3ccc(Cl)cc3)c3cnccc23)CC1 [Compound 46, 1-(4-Chlorophenyl)-N-[2-(4-methylpiperazin-1-yl)ethyl]-1H-pyrazolo[3,4-c]pyridin-3-amine]"
4,6.30 to 7.00,"O=C(NCC1CCNCC1)C1CCN(c2nn(-c3ccc(Cl)cc3)c3cnccc23)CC1 [Compound 47, 1-[1-(4-Chlorophenyl)-1H-pyrazolo[3,4-c]pyridin-3-yl]-N-(piperidin-4-ylmethyl)piperidine-4-carboxamide dihydrochloride]"
5,> 7.00,"O=C(CC1CCNCC1)N1CCC(c2cn(-c3ccc(Cl)cc3)c3cnccc23)CC1 [Compound 4, 1-{4-[1-(4-Chlorophenyl)-1H-pyrrolo[2,3-c]pyridin-3-yl]piperidin-1-yl}-2-(piperidin-4-yl)ethan-1-one]"
6,> 7.00,"CC(C)N1CCC(CNC(=O)N2CCC(c3cn(-c4ccc(Cl)cc4)c4cnccc34)CC2)CC1 [Compound 27, 4-[1-(4-Chlorophenyl)-1H-pyrrolo[2,3-c]pyridin-3-yl]-N-{[1-(propan-2-yl)piperidin-4-yl]methyl}piperidine-1-carboxamide; formic acid]"
7,> 7.00,"O=C1NCCN1CCNc1nn(-c2ccc(Cl)cc2)c2cnccc12 [Compound 64, 1-(2-{[1-(4-Chlorophenyl)-1H-pyrazolo[3,4-c]pyridin-3-yl]amino}ethyl)imidazolidin-2-one]"
8,6.30 to 7.00,"Clc1ccc(-n2nc(NCCN3CCNCC3)c3ccncc32)cc1 [Compound 45, 1-(4-Chlorophenyl)-N-[2-(piperazin-1-yl)ethyl]-1H-pyrazolo[3,4-c]pyridin-3-amine]"
9,6.30 to 7.00,"NCCCOC(=O)N1CCN(CC2CN(c3nn(-c4ccc(Cl)cc4)c4cnccc34)CCO2)CC1 (stereo not drawn) [Compound 37, 3-Aminopropyl 4-({4-[1-(4-chlorophenyl)-1H-pyrazolo[3,4-c]pyridin-3-yl]morpholin-2-yl}methyl)piperazine-1-carboxylate trihydrochloride]"
10,6.30 to 7.00,"Clc1ccc(-n2cc(C3CCN(CC4CCNCC4)CC3)c3ccncc32)cc1 [Compound 3, 4-[1-(4-Chlorophenyl)-1H-pyrrolo[2,3-c]pyridin-3-yl]-1-(piperidin-4-ylmethyl) piperidine]"
